Measurements reported in patent publication US20160002248A1, “GLS1 INHIBITORS FOR TREATING DISEASE” (Board of Regents, The University of Texas System, priority 2014, published 2016).

How the values were obtained:
[1] = target: T1, purified recombinant human GAC (GLS1) (Homo sapiens, UniProt O94925); test: GLS1 Enzymatic Activity Assay (dual-coupled enzymatic assay); format: biochemical
T1 sequence (O94925 55-598 isoform O94925-3 limits assumed): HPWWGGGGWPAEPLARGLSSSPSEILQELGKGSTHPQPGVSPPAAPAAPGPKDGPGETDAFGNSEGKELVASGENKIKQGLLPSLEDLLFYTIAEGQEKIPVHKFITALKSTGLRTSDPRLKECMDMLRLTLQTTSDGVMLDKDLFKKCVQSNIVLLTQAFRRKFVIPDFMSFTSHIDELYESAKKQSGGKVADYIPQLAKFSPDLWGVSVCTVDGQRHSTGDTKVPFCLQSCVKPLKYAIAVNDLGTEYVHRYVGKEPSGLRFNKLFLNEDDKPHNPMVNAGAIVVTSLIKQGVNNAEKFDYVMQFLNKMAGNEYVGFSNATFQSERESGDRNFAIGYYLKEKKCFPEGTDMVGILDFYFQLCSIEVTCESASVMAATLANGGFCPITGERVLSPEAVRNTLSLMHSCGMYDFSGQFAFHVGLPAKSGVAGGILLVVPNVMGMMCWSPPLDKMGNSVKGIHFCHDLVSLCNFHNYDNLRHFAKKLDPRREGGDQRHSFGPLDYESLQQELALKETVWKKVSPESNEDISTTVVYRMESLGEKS
How it was run: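 GAC activity measured by coupling glutamate to glutamate oxidase and HRP, generating resorufin from Amplex UltraRed. Enzyme (2 nM) preincubated with 50 mM potassium phosphate 10 min at room temperature, then inhibitor 10 min; 1 mM glutamine substrate, 1% DMSO. Fluorescence 530/590 nm, kinetic or 20-min endpoint; IC50 from four-parameter logistic fit.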

A549 cells = test: Proliferation Assay (A549 cell viability, Cell Titer Fluor); format: cell-based; settings: Homo sapiens, 72 hours
How it was run: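 Seed A549 at 1000 cells/well and culture 24 h. Add compound (final DMSO 0.5%) and incubate 72 h at 37 °C. Add Cell Titer Fluor, mix 15 min, incubate 30 min, read fluorescence and fit EC50 by four-parameter logistic.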

SMILES	IC50 [1] [nM]	EC50 (A549 cells) [nM]
Cc1ccc(CNC(=O)c2cn(CCCCc3cc4cc(C5CCOCC5)[nH]c4nn3)nn2)cn1 [Example 99, N-[(6-methylpyridin-3-yl)methyl]-1-{4-[6-(oxan-4-yl)-7H-pyrrolo[2,3-c]pyridazin-3-yl]butyl}-1H-1,2,3-triazole-4-carboxamide]	100 to 500	500 to 5000
Cc1ccc(CNC(=O)c2cn(CCCCc3cc4c(CCc5ccccc5)c(C5CC5)[nH]c4nn3)nn2)cn1 [Example 100, 1-{4-[6-cyclopropyl-5-(2-phenylethyl)-7H-pyrrolo[2,3-c]pyridazin-3-yl]butyl}-N-[(6-methylpyridin-3-yl)methyl]-1H-1,2,3-triazole-4-carboxamide]	< 100	100 to 500
O=C(NCc1ccccn1)c1cn(CCCCc2cc3c(Cc4ccc5ccccc5c4)c(C4CC4)[nH]c3nn2)nn1 [Example 101, 1-{4-[6-cyclopropyl-5-(naphthalen-2-ylmethyl)-7H-pyrrolo[2,3-c]pyridazin-3-yl]butyl}-N-(pyridin-2-ylmethyl)-1H-1,2,3-triazole-4-carboxamide]	< 100	100 to 500
O=C(NCc1ccccn1)c1cn(CCCCc2cc3c(Cc4ccccc4)c(C4CC4)[nH]c3nn2)nn1 [Example 102, 1-(4-{5-benzyl-6-cyclopropyl-7H-pyrrolo[2,3-c]pyridazin-3-yl}butyl)-N-(pyridin-2-ylmethyl)-1H-1,2,3-triazole-4-carboxamide]	< 100	500 to 5000
N#Cc1cccc(Cc2c(C3CC3)[nH]c3nnc(CCCCn4cc(C(=O)NCc5ccccn5)nn4)cc23)c1 [Example 103, 1-(4-{5-[(3-cyanophenyl)methyl]-6-cyclopropyl-7H-pyrrolo[2,3-c]pyridazin-3-yl}butyl)-N-(pyridin-2-ylmethyl)-1H-1,2,3-triazole-4-carboxamide]	< 100	500 to 5000
O=C(NCc1ccccn1)c1cn(CCCCc2cc3c(Cc4ccccc4F)c(C4CC4)[nH]c3nn2)nn1 [Example 104, 1-(4-{6-cyclopropyl-5-[(2-fluorophenyl)methyl]-7H-pyrrolo[2,3-c]pyridazin-3-yl}butyl)-N-(pyridin-2-ylmethyl)-1H-1,2,3-triazole-4-carboxamide]	< 100	500 to 5000
CC(C)(C)OC(=O)N1CC(c2cc3cc(CCCCn4cc(C(=O)NCc5cccc(OC(F)(F)F)c5)nn4)nnc3[nH]2)C1 [Example 105, tert-butyl 3-(3-{4-[4-({[3-(trifluoromethoxy)phenyl]methyl}carbamoyl)-1H-1,2,3-triazol-1-yl]butyl}-7H-pyrrolo[2,3-c]pyridazin-6-yl)azetidine-1-carboxylate]	< 100	< 100
O=C(NCc1ccccn1)c1cn(CCCCc2cc3c(Cc4ccc(Cl)cc4)c(C4CC4)[nH]c3nn2)nn1 [Example 106, 1-(4-{5-[(4-chlorophenyl)methyl]-6-cyclopropyl-7H-pyrrolo[2,3-c]pyridazin-3-yl}butyl)-N-(pyridin-2-ylmethyl)-1H-1,2,3-triazole-4-carboxamide]	< 100	100 to 500
O=C(NCc1cccc(OC(F)(F)F)c1)c1cn(CCCCc2cc3cc(C4CNC4)[nH]c3nn2)nn1 [Example 107, 1-{4-[6-(azetidin-3-yl)-7H-pyrrolo[2,3-c]pyridazin-3-yl]butyl}-N-{[3-(trifluoromethoxy)phenyl]methyl}-1H-1,2,3-triazole-4-carboxamide]	100 to 500	500 to 5000
O=C(NCc1ccccn1)c1cn(CCCCc2cc3c(-c4ccccc4)c(C4CC4)[nH]c3nn2)nn1 [Example 108, 1-(4-{6-cyclopropyl-5-phenyl-7H-pyrrolo[2,3-c]pyridazin-3-yl}butyl)-N-(pyridin-2-ylmethyl)-1H-1,2,3-triazole-4-carboxamide]	< 100	100 to 500
Cc1c(C2CC2)[nH]c2nnc(CCCCn3cc(C(=O)NCc4ccccn4)nn3)cc12 [Example 109, 1-(4-(6-cyclopropyl-5-methyl-7H-pyrrolo[2,3-c]pyridazin-3-yl)butyl)-N-(pyridin-2-ylmethyl)-1H-1,2,3-triazole-4-carboxamide]	100 to 500	500 to 5000
CC(C)Cc1c(C2CC2)[nH]c2nnc(CCCCn3cc(C(=O)NCc4ccccn4)nn3)cc12 [Example 110, 1-{4-[6-cyclopropyl-5-(2-methylpropyl)-7H-pyrrolo[2,3-c]pyridazin-3-yl]butyl}-N-(pyridin-2-ylmethyl)-1H-1,2,3-triazole-4-carboxamide]	< 100	100 to 500
CC(C)(C)OC(=O)N1CC(c2cc3cc(CCCCn4cc(C(=O)NCc5cc(OC(F)(F)F)ccc5F)nn4)nnc3[nH]2)C1 [Example 111, tert-butyl 3-(3-(4-(4-((2-fluoro-5-(trifluoromethoxy)benzyl)carbamoyl)-1H-1,2,3-triazol-1-yl)butyl)-7H-pyrrolo[2,3-c]pyridazin-6-yl)azetidine-1-carboxylate]	< 100	< 100
Cc1ccc(CNC(=O)c2cn(CCCCc3cc4c(C#N)c(C5CC5)[nH]c4nn3)nn2)cn1 [Example 112, 1-(4-{5-cyano-6-cyclopropyl-7H-pyrrolo[2,3-c]pyridazin-3-yl}butyl)-N-[(6-methylpyridin-3-yl)methyl]-1H-1,2,3-triazole-4-carboxamide]	< 100	500 to 5000
O=C(NCc1ccccn1)c1cn(CCCCc2cc3c(-c4ccncc4)c(C4CC4)[nH]c3nn2)nn1 [Example 113, 1-{4-[6-cyclopropyl-5-(pyridin-4-yl)-7H-pyrrolo[2,3-c]pyridazin-3-yl]butyl}-N-(pyridin-2-ylmethyl)-1H-1,2,3-triazole-4-carboxamide]	< 100	500 to 5000
O=C(NCc1ccccn1)c1cn(CCCCc2cc3c(Cc4ccc(Cl)nc4)c(C4CC4)[nH]c3nn2)nn1 [Example 114, 1-(4-(5-((6-chloropyridin-3-yl)methyl)-6-cyclopropyl-7H-pyrrolo[2,3-c]pyridazin-3-yl)butyl)-N-(pyridin-2-ylmethyl)-1H-1,2,3-triazole-4-carboxamide 2,2,2-trifluoroacetate]	< 100	500 to 5000
CCOC(=O)c1nnc(CCCCc2cc3cc(C4CC4)[nH]c3nn2)s1 [Example 115, ethyl 5-(4-{6-cyclopropyl-7H-pyrrolo[2,3-c]pyridazin-3-yl}butyl)-1,3,4-thiadiazole-2-carboxylate]	100 to 500	500 to 5000
O=C(NCc1ccccn1)c1cn(CCCCc2cc3c(-c4cccc(Cl)c4)c(C4CC4)[nH]c3nn2)nn1 [Example 116, 1-{4-[5-(3-chlorophenyl)-6-cyclopropyl-7H-pyrrolo[2,3-c]pyridazin-3-yl]butyl}-N-(pyridin-2-ylmethyl)-1H-1,2,3-triazole-4-carboxamide]	< 100	500 to 5000
O=C(NCc1ccccn1)c1cn(CCCCc2cc3c(-c4ccc(Cl)cc4)c(C4CC4)[nH]c3nn2)nn1 [Example 117, 1-{4-[5-(4-chlorophenyl)-6-cyclopropyl-7H-pyrrolo[2,3-c]pyridazin-3-yl]butyl}-N-(pyridin-2-ylmethyl)-1H-1,2,3-triazole-4-carboxamide]	< 100	100 to 500
O=C(NCc1cc(OC(F)(F)F)ccc1F)c1cn(CCCCc2cc3cc(C4CNC4)[nH]c3nn2)nn1 [Example 118, 1-{4-[6-(azetidin-3-yl)-7H-pyrrolo[2,3-c]pyridazin-3-yl]butyl}-N-{[2-fluoro-5-(trifluoromethoxy)phenyl]methyl}-1H-1,2,3-triazole-4-carboxamide]	< 100	500 to 5000
